Literature values in patent publication US20240360134A1, “PYRAZOLOPYRIMIDINES AND THEIR USES AS PDGFR INHIBITORS” (priority 2021, published 2024).

Settings: in vivo; cited from earlier work

## Cc1nc(Nc2ncc(C(=O)Nc3c(C)cccc3Cl)s2)cc(N2CCN(CCO)CC2)n1 [dasatinib]
  cardiotoxicity and development of pulmonary hypertension: linked to cardiotoxicity and the development of pulmonary hypertension
